Experimental data published in patent US11091472B2, “PI-kinase inhibitors with anti-infective activity” (The Board of Trustees of the Leland Stanford Junior …, priority 2016, dated 2021).

What was measured:
[1] = tested on: EV71; experiment: EV71 antiviral assay; type: cell-based; details: Enterovirus A, Table 5
[2] = tested on: HRV; experiment: Rhinovirus antiviral assay; type: cell-based; details: Human rhinovirus sp.; Table 5
[3] = biological target: PI4KIIIB (Bos taurus (Bovine), UniProt O02810); experiment: PI4KIIIβ kinase assay (immunoprecipitated HA-tagged enzyme, [γ-32P]-ATP); type: biochemical; details: kinase activity
Chain of PI4KIIIB (O02810 whole entry): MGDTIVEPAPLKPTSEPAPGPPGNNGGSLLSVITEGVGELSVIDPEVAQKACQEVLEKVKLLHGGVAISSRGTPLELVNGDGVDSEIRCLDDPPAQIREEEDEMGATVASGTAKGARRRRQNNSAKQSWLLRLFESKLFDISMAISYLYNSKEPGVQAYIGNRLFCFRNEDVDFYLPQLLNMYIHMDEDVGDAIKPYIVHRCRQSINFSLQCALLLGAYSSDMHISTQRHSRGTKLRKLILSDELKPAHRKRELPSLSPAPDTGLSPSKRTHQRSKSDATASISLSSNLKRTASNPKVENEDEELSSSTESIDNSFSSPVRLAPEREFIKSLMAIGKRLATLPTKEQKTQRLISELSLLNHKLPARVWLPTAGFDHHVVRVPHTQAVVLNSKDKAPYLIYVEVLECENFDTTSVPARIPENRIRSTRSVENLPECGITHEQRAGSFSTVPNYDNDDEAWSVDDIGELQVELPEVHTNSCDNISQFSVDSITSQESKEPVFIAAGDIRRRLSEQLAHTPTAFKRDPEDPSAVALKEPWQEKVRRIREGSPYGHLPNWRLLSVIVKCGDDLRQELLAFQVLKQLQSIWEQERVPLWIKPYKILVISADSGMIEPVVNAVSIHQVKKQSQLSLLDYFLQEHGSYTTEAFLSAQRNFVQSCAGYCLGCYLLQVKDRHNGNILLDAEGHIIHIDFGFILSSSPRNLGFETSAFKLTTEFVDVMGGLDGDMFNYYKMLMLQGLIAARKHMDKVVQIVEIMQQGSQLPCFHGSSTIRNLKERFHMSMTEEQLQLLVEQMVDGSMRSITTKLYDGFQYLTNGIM

[4] = biological target: PI3KC2G (Homo sapiens (Human), UniProt O75747); experiment: PI3KC2G kinase assay; type: biochemical; details: kinase activity
Chain of PI3KC2G (O75747 whole entry): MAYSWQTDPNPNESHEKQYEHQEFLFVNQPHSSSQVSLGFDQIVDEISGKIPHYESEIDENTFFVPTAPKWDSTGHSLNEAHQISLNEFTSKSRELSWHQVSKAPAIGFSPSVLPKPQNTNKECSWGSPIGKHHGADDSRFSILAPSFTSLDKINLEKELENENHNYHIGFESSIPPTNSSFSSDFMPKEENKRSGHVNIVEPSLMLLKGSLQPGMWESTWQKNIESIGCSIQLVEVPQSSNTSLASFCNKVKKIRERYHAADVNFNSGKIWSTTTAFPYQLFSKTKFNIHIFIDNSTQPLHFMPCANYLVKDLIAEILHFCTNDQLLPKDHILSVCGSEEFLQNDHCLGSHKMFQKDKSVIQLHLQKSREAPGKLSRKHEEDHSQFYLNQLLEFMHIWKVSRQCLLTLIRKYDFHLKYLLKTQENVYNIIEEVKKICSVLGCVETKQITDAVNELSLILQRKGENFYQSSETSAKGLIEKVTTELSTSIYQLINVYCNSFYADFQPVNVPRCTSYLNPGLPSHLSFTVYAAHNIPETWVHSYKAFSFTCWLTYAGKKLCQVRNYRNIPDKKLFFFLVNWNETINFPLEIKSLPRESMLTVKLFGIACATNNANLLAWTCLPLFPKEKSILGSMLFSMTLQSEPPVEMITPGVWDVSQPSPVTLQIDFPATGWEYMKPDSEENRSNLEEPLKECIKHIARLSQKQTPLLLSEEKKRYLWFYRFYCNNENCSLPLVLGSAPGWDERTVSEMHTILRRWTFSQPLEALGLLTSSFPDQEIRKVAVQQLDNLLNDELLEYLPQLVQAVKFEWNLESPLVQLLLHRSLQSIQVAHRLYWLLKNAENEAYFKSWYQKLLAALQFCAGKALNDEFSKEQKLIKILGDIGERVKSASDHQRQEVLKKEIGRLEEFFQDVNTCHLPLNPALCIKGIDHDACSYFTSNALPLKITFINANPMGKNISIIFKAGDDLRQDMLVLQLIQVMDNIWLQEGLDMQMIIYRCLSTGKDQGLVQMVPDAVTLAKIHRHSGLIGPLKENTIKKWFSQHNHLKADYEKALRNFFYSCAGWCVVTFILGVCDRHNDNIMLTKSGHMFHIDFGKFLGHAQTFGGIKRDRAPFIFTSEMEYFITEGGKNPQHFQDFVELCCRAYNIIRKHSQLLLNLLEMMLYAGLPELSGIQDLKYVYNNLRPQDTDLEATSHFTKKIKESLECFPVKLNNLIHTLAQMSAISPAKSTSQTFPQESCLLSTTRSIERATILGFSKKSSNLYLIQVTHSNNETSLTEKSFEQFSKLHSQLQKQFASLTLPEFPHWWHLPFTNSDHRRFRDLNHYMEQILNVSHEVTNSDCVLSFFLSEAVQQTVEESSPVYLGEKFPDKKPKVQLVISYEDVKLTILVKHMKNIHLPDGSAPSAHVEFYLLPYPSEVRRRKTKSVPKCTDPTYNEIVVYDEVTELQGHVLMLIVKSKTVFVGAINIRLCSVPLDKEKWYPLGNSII
Experimental: PI-kinase assay: Compounds are tested in C.1.1. PI kinase assays as described by Shokat et al., “A membrane capture assay for lipid kinase activity.” Nat. Protoc.
Selected compounds of Table 1 and 2 were prepared and tested for inhibition activity in a variety of kinase assays.

[5] = biological target: PI4KIIIA (Homo sapiens (Human), UniProt P42356); experiment: PI4KIIIα kinase assay (immunoprecipitated HA-tagged enzyme, [γ-32P]-ATP); type: biochemical; details: kinase activity
[6] = biological target: PI3K p110g (Homo sapiens (Human), UniProt P48736); experiment: PI3K p110g kinase assay; type: biochemical; details: kinase activity
Chain of PI3K p110g (P48736 whole entry): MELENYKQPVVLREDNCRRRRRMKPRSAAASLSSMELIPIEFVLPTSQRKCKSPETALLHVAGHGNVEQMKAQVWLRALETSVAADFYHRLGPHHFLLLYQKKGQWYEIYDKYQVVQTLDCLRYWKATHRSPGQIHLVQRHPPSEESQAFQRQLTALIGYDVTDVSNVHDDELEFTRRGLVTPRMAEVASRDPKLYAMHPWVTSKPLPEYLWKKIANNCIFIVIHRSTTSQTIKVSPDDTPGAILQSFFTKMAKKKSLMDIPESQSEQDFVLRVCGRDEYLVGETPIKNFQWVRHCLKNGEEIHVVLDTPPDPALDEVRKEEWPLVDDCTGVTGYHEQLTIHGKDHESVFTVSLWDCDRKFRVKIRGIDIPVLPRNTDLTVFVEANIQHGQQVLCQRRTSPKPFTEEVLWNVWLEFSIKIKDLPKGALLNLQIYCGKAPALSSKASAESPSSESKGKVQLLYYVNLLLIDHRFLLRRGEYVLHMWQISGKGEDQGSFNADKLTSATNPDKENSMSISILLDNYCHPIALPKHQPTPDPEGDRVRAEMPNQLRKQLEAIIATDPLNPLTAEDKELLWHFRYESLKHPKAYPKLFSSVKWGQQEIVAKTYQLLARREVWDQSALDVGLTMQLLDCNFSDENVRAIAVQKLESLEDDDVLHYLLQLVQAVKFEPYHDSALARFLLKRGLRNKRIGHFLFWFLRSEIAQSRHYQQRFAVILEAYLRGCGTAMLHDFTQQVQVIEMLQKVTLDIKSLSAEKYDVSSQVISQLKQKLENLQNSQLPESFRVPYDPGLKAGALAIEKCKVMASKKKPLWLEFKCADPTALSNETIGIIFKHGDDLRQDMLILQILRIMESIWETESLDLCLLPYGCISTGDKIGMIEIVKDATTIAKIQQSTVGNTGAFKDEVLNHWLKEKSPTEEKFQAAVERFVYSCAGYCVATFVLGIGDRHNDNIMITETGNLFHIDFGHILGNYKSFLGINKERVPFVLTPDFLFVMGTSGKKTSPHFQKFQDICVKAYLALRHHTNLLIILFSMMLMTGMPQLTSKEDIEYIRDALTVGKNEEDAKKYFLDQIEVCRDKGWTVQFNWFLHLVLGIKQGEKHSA

[7] = Cell toxicity (CC50); type: cell-based; details: human, HuH-7 cells

SMILES | EC50 [1] | EC50 [2] | IC50 [3] | other results
COc1ccc(-c2sc(NC(C)C3CCOCC3)nc2C)cc1S(=O)(=O)Nc1ncccc1C (stereo not shown) [Compound S-329] | 1 to 100 nM | 1 to 100 nM |  | 
COc1ccc(-c2sc(NC(C)C3CCOCC3)nc2C)cc1S(=O)(=O)Nc1ccc(O)cc1C (stereo not shown) [Compound S-317] | 1 to 100 nM | 1 to 100 nM |  | 
COc1ncc(-c2sc(NC(C)C3CCOCC3)nc2C)cc1S(=O)(=O)Nc1ccc(O)cc1Cl (stereo not shown) [Compound S-375] | 1 to 100 nM | 1 to 100 nM |  | 
COc1ccc(-c2sc(NC(=O)CC3CCCC3)nc2C)cc1S(=O)(=O)N1CC[C@@H](O)C1 [Compound S-153] |  |  | < 100 nM | 
COc1ncc(-c2sc(NC(C)C3CCOCC3)nc2C)cc1S(=O)(=O)Nc1ccccc1F (stereo not shown) [Compound S-339] | 1 to 100 nM | 1 to 100 nM |  | 
COc1ncc(-c2sc(NC(C)C3CCOCC3)nc2C)cc1S(=O)(=O)Nc1ccc(O)cc1C (stereo not shown) [Compound S-340] | 1 to 100 nM | 1 to 100 nM |  | 
COc1ccc(-c2sc(NC3CCCCC3)nc2C)cc1S(=O)(=O)NC1CCCCCC1 [Compound S-131] |  |  | 100 to 1000 nM | IC50 [4]: > 10000 nM; IC50 [5]: > 10000 nM
COc1ccc(-c2sc(NCC3CCCCC3)nc2C)cc1S(=O)(=O)NC1CCN(C(C)C)CC1 [Compound S-134] |  |  | < 100 nM | 
COc1ccc(-c2sc(NC(=O)Cc3ccccc3)nc2C)cc1S(=O)(=O)Nc1ccc(O)cc1 [Compound S-49] |  |  | < 100 nM | 
COc1ncc(-c2sc(NC(C)C3CCOCC3)nc2C)cc1S(=O)(=O)Nc1ccc(F)cc1C (stereo not shown) [Compound S-338] | 1 to 100 nM | 1 to 100 nM |  | 
COc1ccc(-c2sc(N[C@H](C)C3CCCCC3)nc2C)cc1S(=O)(=O)N[C@H]1CC[C@@H](O)CC1 [Compound S-198] |  |  | 100 to 1000 nM | 
COc1ccc(-c2sc(NCC(C)C)nc2C)cc1S(=O)(=O)N[C@H]1CC[C@@H](O)CC1 [Compound S-222] |  |  | < 100 nM | 
COc1ccc(-c2sc(NC(=O)C3CCCC3)nc2C)cc1S(=O)(=O)N[C@H]1CC[C@H](O)CC1 [Compound S-9] |  |  | < 100 nM | 
COc1ccc(-c2sc(N[C@H](C)C3CCCCC3)nc2C)cc1S(=O)(=O)N[C@H]1CCNC1 [Compound S-201] |  |  | < 100 nM | 
COc1ccc(-c2sc(N[C@H](C)C3CCCCC3)nc2C)cc1S(=O)(=O)NC1CCCNC1 (stereo partly shown) [Compound S-148] |  |  |  | IC50 [6]: > 10000 nM
COc1ccc(-c2sc(NC(=O)[C@@H](C)C3CCCCC3)nc2C)cc1S(=O)(=O)Nc1ccc(O)cc1 [Compound S-138] |  |  |  | CC50 [7]: > 10000 nM

SMILES | EC50 [1] | EC50 [2] | IC50 [3] | other results
COc1ccc(-c2sc(NC(C)C3CCOCC3)nc2C)cc1S(=O)(=O)Nc1ccc(O)cc1Cl (stereo not shown) [Compound S-318] | < 1 nM | 1 to 100 nM |  | 
COc1ccc(-c2sc(NCC3CCCCC3)nc2C)cc1S(=O)(=O)NC1CCN(C2CC2)CC1 [Compound S-135] |  |  | < 100 nM | 
COc1ccc(-c2sc(NC3CCCCC3)nc2C)cc1S(=O)(=O)NC1CCCC1 [Compound S-129] |  |  | 100 to 1000 nM | IC50 [4]: > 10000 nM; IC50 [6]: > 10000 nM; IC50 [5]: > 10000 nM
COc1ccc(-c2sc(NC(=O)CC3CCOCC3)nc2C)cc1S(=O)(=O)Nc1ccccc1C [Compound S-228] |  |  |  | CC50 [7]: > 10000 nM
COc1ccc(-c2sc(NC(C)C3CCOCC3)nc2C)cc1S(=O)(=O)Nc1c(C)cccc1F (stereo not shown) [Compound S-323] | < 1 nM | < 1 nM |  | 
COc1ccc(-c2sc(NCCC3CCCCC3)nc2C)cc1S(=O)(=O)NC1CCC(O)C1 (stereo not shown) [Compound S-214] |  |  |  | IC50 [6]: > 10000 nM
COc1ccc(-c2sc(NC(C)C3CCOCC3)nc2C)cc1S(=O)(=O)Nc1c(F)cccc1Cl (stereo not shown) [Compound S-322] | 1 to 100 nM | 1 to 100 nM |  | 
COc1ncc(-c2sc(NC(C)C3CCOCC3)nc2C)cc1S(=O)(=O)Nc1ccc(O)cc1F (stereo not shown) [Compound S-334] | 1 to 100 nM | 1 to 100 nM |  | 
COc1ccc(-c2sc(N[C@@H](C)C3CCCCC3)nc2C)cc1S(=O)(=O)N[C@H]1CC[C@@H](O)CC1 [Compound S-206] |  |  | 1000 to 10000 nM | 
COc1ccc(-c2sc(NC(=O)CC3CCOCC3)nc2C)cc1S(=O)(=O)Nc1ccccc1F [Compound S-230] |  |  | < 100 nM | 
COc1ncc(-c2sc(NC(C)C3CCOCC3)nc2C)cc1S(=O)(=O)Nc1ccc(F)cc1F (stereo not shown) [Compound S-336] | 1 to 100 nM | 1 to 100 nM |  | 
COc1ccc(-c2sc(NC(C)C3CCOCC3)nc2C)cc1S(=O)(=O)Nc1ccc(C(=O)O)cc1 (stereo not shown) [Compound S-325] | 1000 to 10000 nM | 1000 to 10000 nM |  | 
COc1ccc(-c2sc(NC3CCCCC3)nc2C)cc1S(=O)(=O)N[C@H]1CC[C@@H](O)CC1 [Compound S-167] |  |  | < 100 nM | 
COc1ccc(-c2sc(NC(C)C3CCOCC3)nc2C)cc1S(=O)(=O)Nc1ccccc1C (stereo not shown) [Compound S-315] | 1 to 100 nM | 1 to 100 nM |  | 
COc1ccc(-c2sc(NCC3CCCCC3)nc2C)cc1S(=O)(=O)NC1CCN(C2CCCCC2)CC1 [Compound S-136] |  |  | < 100 nM | 
